Assay results: patent publication US8604016B2, “Heterocyclic inhibitors of glutaminase” (Calithera Biosciences Inc., priority 2011, dated 2013)

biological target: recombinant form of Glutaminase 1 (GAC) (Homo sapiens, UniProt O94925); assay: Recombinant Enzyme Assay (GAC coupled to GDH, NADH absorbance, no preincubation); assay type: biochemical; settings: no preincubation; read-out: GAC Delta N2 IC50 no preinc
Procedure, shortened: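 GAC (4 nM) in Tris-HCl pH 8.0 with 150 mM K2HPO4, EDTA, BSA, DTT, plus 4 units/ml GDH and 4 mM ADP, without preincubation. Absorbance at 340 nm was read kinetically for 15 min at 20° C. Slopes (mAU/min) were compared with DMSO-only and control-compound wells on the same plate.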

Row | SMILES | IC50 [nM]
1 | O=C(Nc1nnc(CCCCc2nnc(NC(=O)C3(c4ccccc4)CCOCC3)s2)s1)C1(c2ccccc2)CCOCC1 [Compound 166] | 7400
2 | O=C(Nc1nnc(CCCCc2nnc(NC(=O)[C@H](O)c3ccccc3)s2)s1)[C@H](O)c1ccccc1 [Compound 80] | 1800
3 | CC[C@@](O)(C(=O)Nc1nnc(CCSCCc2nnc(NC(=O)[C@](O)(CC)c3ccccc3)s2)s1)c1ccccc1 [Compound 142] | > 20000
4 | O=C(Nc1nnc(CCCc2nnc(NC(=O)C(O)c3ccccc3)s2)s1)C(O)c1ccccc1 (stereo not shown) [Compound 172] | 1700
5 | N[C@@H](CO)C(=O)Nc1nnc(CCCCc2nnc(NC(=O)[C@@H](N)CO)s2)s1 [Compound 140] | 3400
6 | O=C(CC1CCCC1)Nc1nnc(CCSCCc2nnc(NC(=O)CC3CCCC3)s2)s1 [Compound 58] | > 50000
7 | O=C(Cc1csc2ccccc12)Nc1nnc(CCSCCc2nnc(NC(=O)Cc3csc4ccccc34)s2)s1 [Compound 212] | > 20000
8 | O=C(Cc1cccc(-n2cccc2)c1)Nc1nnc(CCCCc2nnc(NC(=O)Cc3cccc(-n4cccc4)c3)s2)s1 [Compound 330] | > 20000
9 | CC(C)(C)OC(=O)NC(C(=O)Nc1nnc(CCSCCc2nnc(NC(=O)C(NC(=O)OC(C)(C)C)C3CCCC3)s2)s1)C1CCCC1 (stereo not shown) [Compound 110] | > 20000
10 | C[C@H](NC(=O)OC(C)(C)C)C(=O)Nc1nnc(CCSCCc2nnc(NC(=O)[C@H](C)NC(=O)OC(C)(C)C)s2)s1 [Compound 49] | 36000
11 | CC(C)[C@H](NC(=O)OC(C)(C)C)C(=O)Nc1nnc(CCSCCc2nnc(NC(=O)[C@@H](NC(=O)OC(C)(C)C)C(C)C)s2)s1 [Compound 34] | > 50000
12 | CC(=O)OCC(=O)Nc1nnc(CCSCCc2nnc(NC(=O)COC(C)=O)s2)s1 [Compound 5] | > 50000
13 | O=C(Cc1cccs1)Nc1nnc(CCCCc2nnc(NC(=O)Cc3cccs3)s2)s1 [Compound 87] | 180
14 | CC(C)(C)OC(=O)N1CCN(C(C(=O)Nc2nnc(CCSCCc3nnc(NC(=O)Cc4ccccc4)s3)s2)c2ccccc2)CC1 (stereo not shown) [Compound 70] | 3400
15 | O=C(Nc1nnc(CCCCc2nnc(NC(=O)C(O)Cc3ccccc3)s2)s1)C(O)Cc1ccccc1 (stereo not shown) [Compound 69] | 690
16 | O=C(Nc1nnc(CCSCCc2nnc(NC(=O)C3Cc4cc(Cl)ccc4O3)s2)s1)C1Cc2cc(Cl)ccc2O1 (stereo not shown) [Compound 189] | 4400
17 | CN(C)c1ccc(CC(=O)Nc2nnc(CCSCCc3nnc(NC(=O)Cc4ccc(N(C)C)cc4)s3)s2)cc1 [Compound 162] | 230
18 | CC(C)(C)OC(=O)NC(C(=O)Nc1nnc(CCCCc2nnc(NC(=O)C(NC(=O)OC(C)(C)C)C3CCCC3)s2)s1)C1CCCC1 (stereo not shown) [Compound 113] | > 20000
19 | CC(C)(C)OC(=O)N1CCC(CC(=O)Nc2nnc(CCCCc3nnc(NC(=O)CC4CCN(C(=O)OC(C)(C)C)CC4)s3)s2)CC1 [Compound 114] | 600
20 | O=C(Nc1nnc(CCCCCc2nnc(NC(=O)C(CO)c3ccccc3)s2)s1)C(CO)c1ccccc1 (stereo not shown) [Compound 30] | 1200
21 | O=C(Nc1nnc(CCCCc2nnc(NC(=O)C(F)(F)F)s2)s1)C(F)(F)F [Compound 45] | > 50000
22 | O=C(CC(C(=O)O)c1ccccc1)Nc1nnc(CCCCc2nnc(NC(=O)CC(C(=O)O)c3ccccc3)s2)s1 (stereo not shown) [Compound 177] | 1100
23 | CC(C)(C)OC(=O)Nc1ccc(CC(=O)Nc2nnc(CCSCCc3nnc(NC(=O)Cc4ccc(NC(=O)OC(C)(C)C)cc4)s3)s2)cc1 [Compound 185] | > 20000

Row | SMILES | IC50 [nM]
24 | O=C(Cc1cccc(F)c1)Nc1nnc(CCSCCc2nnc(NC(=O)Cc3cccc(F)c3)s2)s1 [Compound 102] | 240
25 | CC(C)CC(=O)Nc1nnc(CCSCCc2nnc(NC(=O)CC(C)C)s2)s1 [Compound 4] | 13000
26 | O=C(Nc1nnc(CCCCc2nnc(NC(=O)C3(C(F)(F)F)CC3)s2)s1)C1(C(F)(F)F)CC1 [Compound 62] | > 50000
27 | CC[C@](O)(C(=O)Nc1nnc(CCSCCc2nnc(NC(=O)[C@@](O)(CC)c3ccccc3)s2)s1)c1ccccc1 [Compound 141] | 1700
28 | O=C(Cc1ccccc1)Nc1nnc(CCSCCc2nnc(N(COC(=O)OCCCN3CCOCC3)C(=O)Cc3ccccc3)s2)s1 [Compound 27] | > 50000
29 | CC(C)(C)OC(=O)N1CCCC(CC(=O)Nc2nnc(CCCCc3nnc(NC(=O)CC4CCCN(C(=O)OC(C)(C)C)C4)s3)s2)C1 (stereo not shown) [Compound 115] | 620
30 | O=C(Cc1cc2ccccc2o1)Nc1nnc(CCCCc2nnc(NC(=O)Cc3cc4ccccc4o3)s2)s1 [Compound 194] | 10000
31 | CO[C@H](C(=O)Nc1nnc(CCCCc2nnc(NC(=O)[C@@H](OC)c3ccccc3)s2)s1)c1ccccc1 [Compound 148] | 590
32 | C[C@@H](O)[C@H](N)C(=O)Nc1nnc(CCSCCc2nnc(NC(=O)[C@@H](N)[C@@H](C)O)s2)s1 [Compound 139] | > 20000
33 | CC(CO)(CO)C(=O)Nc1nnc(CCCCc2nnc(NC(=O)Cc3cccc(F)c3)s2)s1 [Compound 152, N,N′-(5-(4-(5-(2-(3-fluorophenyl)acetamido)-1,3,4-thiadiazol-2-yl)butyl)-1,3,4-thiadiazol-2-yl)-3-hydroxy-2-(hydroxymethyl)-2-methylpropanamide] | 730
34 | O=C(Cc1ccccc1)Nc1nnc(CSCc2nnc(NC(=O)Cc3ccccc3)s2)s1 [Compound 145] | > 20000
35 | COCC(C(=O)Nc1nnc(CCSCCc2nnc(NC(=O)C(COC)c3ccccc3)s2)s1)c1ccccc1 (stereo not shown) [Compound 204] | 920
36 | Cn1cc(CC(=O)Nc2nnc(CCCCc3nnc(NC(=O)Cc4cn(C)c5ccccc45)s3)s2)c2ccccc21 [Compound 201] | 2700
37 | O=CO[C@@H](C(=O)Nc1nnc(CCCCc2nnc(NC(=O)[C@H](OC=O)c3ccccc3)s2)s1)c1ccccc1 [Compound 68] | 4900
38 | O=C(Nc1nnc(CCSCCc2nnc(NC(=O)C3Cc4cc(Br)ccc4O3)s2)s1)C1Cc2cc(Br)ccc2O1 (stereo not shown) [Compound 118] | 5000
39 | CC(C)(C)OC(=O)Nc1cccc(CC(=O)Nc2nnc(CCCCc3nnc(NC(=O)Cc4cccc(NC(=O)OC(C)(C)C)c4)s3)s2)c1 [Compound 327] | > 20000
40 | O=C(Nc1nnc(CCCCc2nnc(NC(=O)C3CCCO3)s2)s1)C1CCCO1 (stereo not shown) [Compound 54] | 9200
41 | CC1(C)OC(=O)[C@@H](CC(=O)Nc2nnc(CCCCc3nnc(NC(=O)C[C@H]4OC(C)(C)OC4=O)s3)s2)O1 [Compound 103] | 19000
42 | NC(C(=O)Nc1nnc(CCCCc2nnc(NC(=O)C(N)C3CCCC3)s2)s1)C1CCCC1 (stereo not shown) [Compound 131] | 19000
43 | C[C@H](N)C(=O)Nc1nnc(CCSCCc2nnc(NC(=O)[C@H](C)N)s2)s1 [Compound 74] | > 50000
44 | O=C(Nc1nnc(CCCCc2nnc(NC(=O)C(c3ccccc3)N3CCNCC3)s2)s1)C(c1ccccc1)N1CCNCC1 (stereo not shown) [Compound 77] | 6100
45 | CCCC(=O)OCN(C(=O)Cc1ccccc1)c1nnc(CCSCCc2nnc(NC(=O)Cc3ccccc3)s2)s1 [Compound 7] | > 50000
46 | CC(C)(C)c1ccc(CC(=O)Cc2nnc(CCCCc3nnc(NC(=O)Cc4ccc(C(C)(C)C)cc4)s3)s2)cc1 [Compound 191] | > 20000

Next, values leading:

Row | IC50 [nM] | SMILES
47 | 160 | O=C(Cc1ccccc1)Nc1nnc(CCSCc2nnc(NC(=O)Cc3cccc(Cl)c3)s2)s1 [Compound 372]
48 | 1400 | O=C(CCN1CCOCC1)OC(C(=O)Nc1nnc(CCCCc2nnc(NC(=O)C(O)c3cccc(Cl)c3)s2)s1)c1cccc(Cl)c1 (stereo not shown) [Compound 358]
49 | > 20000 | CC(C)[C@H](NC(=O)OC(C)(C)C)C(=O)OCC(C(=O)Nc1nnc(CCCCc2nnc(NC(=O)C(COC(=O)[C@@H](NC(=O)OC(C)(C)C)C(C)C)c3ccccc3)s2)s1)c1ccccc1 (stereo partly shown) [Compound 272]
50 | 380 | O=C(Cc1ccccc1)Nc1nnc(CCSCCc2nnc(NC(=O)Cc3ccccn3)s2)s1 [Compound 359]
51 | 2800 | C[C@@H](O)C(=O)Nc1nnc(CCCCc2nnc(NC(=O)Cc3ccccc3)s2)s1 [Compound 322]
52 | 270 | COc1ccc(OC)c(CC(=O)Nc2nnc(CCCc3nnc(NC(=O)Cc4cc(OC)ccc4OC)s3)s2)c1 [Compound 265]
53 | 1600 | COC(=O)C(C(=O)Nc1nnc(CCCCc2nnc(NC(=O)C(C(=O)OC)c3ccccc3)s2)s1)c1ccccc1 (stereo not shown) [Compound 220]
54 | 890 | N#Cc1ccc(CC(=O)Nc2nnc(CCSCCc3nnc(NC(=O)Cc4ccc(C#N)cc4)s3)s2)cc1 [Compound 216]
55 | 82 | O=C(Cc1ccccc1Br)Nc1nnc(CCCCc2nnc(NC(=O)Cc3ccccc3Br)s2)s1 [Compound 282]
56 | 110 | O=C(Cc1ccccc1)Nc1nnc(CCCCc2nnc(NC(=O)Cc3cccnc3)s2)s1 [Compound 309]
57 | 400 | COc1ccc(C(O)C(=O)Nc2nnc(CCCCc3nnc(NC(=O)C(O)c4ccc(OC)cc4)s3)s2)cc1 (stereo not shown) [Compound 320]
58 | 6400 | CN(C)CC(=O)Nc1nnc(CCCCc2nnc(NC(=O)Cc3ccccc3)s2)s1 [Compound 297]
59 | 1200 | COC(=O)Nc1nnc(CCCCc2nnc(NC(=O)Cc3ccccc3)s2)s1 [Compound 387]
60 | 290 | O=C(Cc1ccccc1)Nc1nnc(CCCCc2nnc(NC(=O)C(O)(CO)c3ccccc3)s2)s1 (stereo not shown) [Compound 280]
61 | 330 | CCOc1ccccc1CC(=O)Nc1nnc(CCSCCc2nnc(NC(=O)Cc3ccccc3OCC)s2)s1 [Compound 299]
62 | 1200 | O=C(Nc1nnc(CCCCc2nnc(NC(=O)C(OCCO)c3ccccc3)s2)s1)C(OCCO)c1ccccc1 (stereo not shown) [Compound 252]
63 | 160 | CCOc1ccccc1CC(=O)Nc1nnc(CCCCc2nnc(NC(=O)Cc3ccccc3OCC)s2)s1 [Compound 300]
64 | 170 | COc1ccccc1CC(=O)Nc1nnc(CCSCCc2nnc(NC(=O)Cc3ccccc3OC)s2)s1 [Compound 219]
65 | 2500 | C[C@H](O)C(=O)Nc1nnc(CCCCc2nnc(NC(=O)Cc3ccccc3)s2)s1 [Compound 321]
66 | 2000 | COC(=O)C(C(=O)Nc1nnc(CCSCCc2nnc(NC(=O)C(C(=O)OC)c3ccccc3)s2)s1)c1ccccc1 (stereo not shown) [Compound 234]
67 | > 20000 | CC(=O)Nc1nnc(CCSCCc2nnc(N)s2)s1 [Compound 357]
